{"source": "ChEMBL document CHEMBL1201862", "about": "“PubChem BioAssay data set” (2004)", "assay_in_all_cases": "DTP human tumour cell line panel, 48 h", "key": {"RXF 393": {"system": "RXF 393"}, "OVCAR-3": {"system": "OVCAR-3"}, "IGROV-1": {"system": "IGROV-1"}, "NCI-H23": {"system": "NCI-H23"}, "SNB-75": {"system": "SNB-75"}, "HL-60": {"system": "HL-60"}, "UO-31": {"system": "UO-31"}, "MOLT-4": {"system": "MOLT-4"}, "UACC-62": {"system": "UACC-62"}, "SK-MEL-2": {"system": "SK-MEL-2"}, "NCI-H226": {"system": "NCI-H226"}, "SF-268": {"system": "SF-268"}, "K562": {"system": "K562"}, "SK-OV-3": {"system": "SK-OV-3"}, "ACHN": {"system": "ACHN"}, "SK-MEL-28": {"system": "SK-MEL-28"}, "TK-10": {"system": "TK-10"}, "SW-620": {"system": "SW-620"}, "HCC 2998": {"system": "HCC 2998"}, "786-0": {"system": "786-0"}, "LOX IMVI": {"system": "LOX IMVI"}, "OVCAR-4": {"system": "OVCAR-4"}, "HCT-116": {"system": "HCT-116"}, "CAKI-1": {"system": "CAKI-1"}, "KM-20L2": {"system": "KM-20L2"}, "OVCAR-5": {"system": "OVCAR-5"}, "KM12": {"system": "KM12"}, "SNB-19": {"system": "SNB-19"}, "HOP-62": {"system": "HOP-62"}, "LXFL 529": {"system": "LXFL 529"}, "SK-MEL-5": {"system": "SK-MEL-5"}, "DMS-114": {"system": "DMS-114"}, "SN12C": {"system": "SN12C"}, "HCT-15": {"system": "HCT-15"}, "EKVX": {"system": "EKVX"}, "SNB-78": {"system": "SNB-78"}, "U-251": {"system": "U-251"}, "A549": {"system": "A549"}, "M14": {"system": "M14"}, "HOP-92": {"system": "HOP-92"}, "Malme-3M": {"system": "Malme-3M"}, "SF-539": {"system": "SF-539"}, "SR": {"system": "SR"}, "UACC-257": {"system": "UACC-257"}, "MDA-MB-435": {"system": "MDA-MB-435"}, "MDA-N": {"system": "MDA-N"}, "MCF7": {"system": "MCF7"}, "RPMI-8226": {"system": "RPMI-8226"}, "NCI/ADR-RES": {"system": "NCI/ADR-RES"}, "Hs-578T": {"system": "Hs-578T"}, "A498": {"system": "A498"}, "HT-29": {"system": "HT-29"}, "DU-145": {"system": "DU-145"}, "OVCAR-8": {"system": "OVCAR-8"}, "PC-3": {"system": "PC-3"}, "T47D": {"system": "T47D"}, "SF-295": {"system": "SF-295"}, "NCI-H522": {"system": "NCI-H522"}, "NCI-H460": {"system": "NCI-H460"}, "MDA-MB-231": {"system": "MDA-MB-231"}, "CCRF-CEM": {"system": "CCRF-CEM"}, "BT-549": {"system": "BT-549"}, "COLO 205": {"system": "COLO 205"}}, "note": "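How tested: cells in 96-well plates exposed to compound for 48 hours at five concentrations. At the GI50, growth is halved.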 Activity calls are given as the source filed them. Cut-off read from the data, not from the text of the source: active = GI50 up to about 1.1 µM and inactive = higher.", "data": [{"smiles": "COc1ccc(OC)c2c1CC(C(=O)O)(C(=O)O)CC2=O", "values": [{"measurement": "GI50", "setting": "RXF 393", "value": "> 100 µM (inactive)"}, {"measurement": "GI50", "setting": "OVCAR-3", "value": "> 100 µM (inactive)"}, {"measurement": "GI50", "setting": "IGROV-1", "value": "> 100 µM (inactive)"}, {"measurement": "GI50", "setting": "NCI-H23", "value": "> 100 µM (inactive)"}, {"measurement": "GI50", "setting": "SNB-75", "value": "> 100 µM (inactive)"}, {"measurement": "GI50", "setting": "HL-60", "value": "> 100 µM (inactive)"}, {"measurement": "GI50", "setting": "UO-31", "value": "> 100 µM (inactive)"}, {"measurement": "GI50", "setting": "MOLT-4", "value": "> 100 µM (inactive)"}, {"measurement": "GI50", "setting": "UACC-62", "value": "> 100 µM (inactive)"}, {"measurement": "GI50", "setting": "SK-MEL-2", "value": "> 100 µM (inactive)"}, {"measurement": "GI50", "setting": "NCI-H226", "value": "> 100 µM (inactive)"}, {"measurement": "GI50", "setting": "SF-268", "value": "> 100 µM (inactive)"}, {"measurement": "GI50", "setting": "K562", "value": "> 100 µM (inactive)"}, {"measurement": "GI50", "setting": "SK-OV-3", "value": "> 100 µM (inactive)"}, {"measurement": "GI50", "setting": "ACHN", "value": "> 100 µM (inactive)"}, {"measurement": "GI50", "setting": "SK-MEL-28", "value": "> 100 µM (inactive)"}, {"measurement": "GI50", "setting": "TK-10", "value": "> 100 µM (inactive)"}, {"measurement": "GI50", "setting": "SW-620", "value": "> 100 µM (inactive)"}, {"measurement": "GI50", "setting": "HCC 2998", "value": "> 100 µM (inactive)"}, {"measurement": "GI50", "setting": "786-0", "value": "> 100 µM (inactive)"}, {"measurement": "GI50", "setting": "LOX IMVI", "value": "> 100 µM (inactive)"}, {"measurement": "GI50", "setting": "OVCAR-4", "value": "> 100 µM (inactive)"}, {"measurement": "GI50", "setting": "HCT-116", "value": "> 100 µM (inactive)"}, {"measurement": "GI50", "setting": "CAKI-1", "value": "> 100 µM (inactive)"}, {"measurement": "GI50", "setting": "KM-20L2", "value": "> 100 µM (inactive)"}, {"measurement": "GI50", "setting": "OVCAR-5", "value": "> 100 µM (inactive)"}, {"measurement": "GI50", "setting": "KM12", "value": "> 100 µM (inactive)"}, {"measurement": "GI50", "setting": "SNB-19", "value": "> 100 µM (inactive)"}, {"measurement": "GI50", "setting": "HOP-62", "value": "> 100 µM (inactive)"}, {"measurement": "GI50", "setting": "LXFL 529", "value": "> 100 µM (inactive)"}, {"measurement": "GI50", "setting": "SK-MEL-5", "value": "> 100 µM (inactive)"}, {"measurement": "GI50", "setting": "DMS-114", "value": "> 100 µM (inactive)"}, {"measurement": "GI50", "setting": "SN12C", "value": "> 100 µM (inactive)"}, {"measurement": "GI50", "setting": "HCT-15", "value": "> 100", "unit": "µM"}, {"measurement": "GI50", "setting": "EKVX", "value": "> 100 µM (inactive)"}, {"measurement": "GI50", "setting": "SNB-78", "value": "> 100 µM (inactive)"}, {"measurement": "GI50", "setting": "U-251", "value": "> 100 µM (inactive)"}, {"measurement": "GI50", "setting": "A549", "value": "> 100 µM (inactive)"}, {"measurement": "GI50", "setting": "M14", "value": "> 100 µM (inactive)"}, {"measurement": "GI50", "setting": "HOP-92", "value": "> 100 µM (inactive)"}, {"measurement": "GI50", "setting": "Malme-3M", "value": "> 100 µM (inactive)"}]}, {"smiles": "O=C1CC(n2cccc2)c2c(Br)sc(Br)c21", "note": "(stereo not given)", "values": [{"measurement": "GI50", "setting": "SF-539", "value": "17.6 µM (inactive)"}, {"measurement": "GI50", "setting": "RXF 393", "value": "20.6 µM (inactive)"}, {"measurement": "GI50", "setting": "OVCAR-3", "value": "15.8 µM (inactive)"}, {"measurement": "GI50", "setting": "IGROV-1", "value": "16.2 µM (inactive)"}, {"measurement": "GI50", "setting": "SR", "value": "3.89 µM (inactive)"}, {"measurement": "GI50", "setting": "NCI-H23", "value": "13.6 µM (inactive)"}, {"measurement": "GI50", "setting": "UACC-257", "value": "15.1 µM (inactive)"}, {"measurement": "GI50", "setting": "SNB-75", "value": "18.7 µM (inactive)"}, {"measurement": "GI50", "setting": "MDA-MB-435", "value": "14.4 µM (inactive)"}, {"measurement": "GI50", "setting": "MDA-N", "value": "16.3 µM (inactive)"}, {"measurement": "GI50", "setting": "HL-60", "value": "15.1 µM (inactive)"}, {"measurement": "GI50", "setting": "MCF7", "value": "12 µM (inactive)"}, {"measurement": "GI50", "setting": "UO-31", "value": "2.56 µM (inactive)"}, {"measurement": "GI50", "setting": "MOLT-4", "value": "8.93 µM (inactive)"}, {"measurement": "GI50", "setting": "RPMI-8226", "value": "8.24 µM (inactive)"}, {"measurement": "GI50", "setting": "NCI/ADR-RES", "value": "26.1 µM (inactive)"}, {"measurement": "GI50", "setting": "Hs-578T", "value": "25.1 µM (inactive)"}, {"measurement": "GI50", "setting": "UACC-62", "value": "15.9 µM (inactive)"}, {"measurement": "GI50", "setting": "SK-MEL-2", "value": "14.5 µM (inactive)"}, {"measurement": "GI50", "setting": "NCI-H226", "value": "18.8 µM (inactive)"}, {"measurement": "GI50", "setting": "A498", "value": "24.9 µM (inactive)"}, {"measurement": "GI50", "setting": "HT-29", "value": "16.6 µM (inactive)"}, {"measurement": "GI50", "setting": "SF-268", "value": "14.8 µM (inactive)"}, {"measurement": "GI50", "setting": "K562", "value": "14.5 µM (inactive)"}, {"measurement": "GI50", "setting": "SK-OV-3", "value": "19.4 µM (inactive)"}, {"measurement": "GI50", "setting": "ACHN", "value": "17.5 µM (inactive)"}, {"measurement": "GI50", "setting": "DU-145", "value": "16.6 µM (inactive)"}, {"measurement": "GI50", "setting": "SK-MEL-28", "value": "20.3 µM (inactive)"}, {"measurement": "GI50", "setting": "OVCAR-8", "value": "15.2 µM (inactive)"}, {"measurement": "GI50", "setting": "PC-3", "value": "16.4 µM (inactive)"}, {"measurement": "GI50", "setting": "T47D", "value": "18.1 µM (inactive)"}, {"measurement": "GI50", "setting": "TK-10", "value": "19.2 µM (inactive)"}, {"measurement": "GI50", "setting": "SW-620", "value": "12.4 µM (inactive)"}, {"measurement": "GI50", "setting": "SF-295", "value": "23.3 µM (inactive)"}, {"measurement": "GI50", "setting": "HCC 2998", "value": "15.4 µM (inactive)"}, {"measurement": "GI50", "setting": "NCI-H522", "value": "1.49 µM (inactive)"}, {"measurement": "GI50", "setting": "786-0", "value": "18.3 µM (inactive)"}, {"measurement": "GI50", "setting": "NCI-H460", "value": "18 µM (inactive)"}, {"measurement": "GI50", "setting": "LOX IMVI", "value": "6.73 µM (inactive)"}, {"measurement": "GI50", "setting": "OVCAR-4", "value": "16.7 µM (inactive)"}, {"measurement": "GI50", "setting": "HCT-116", "value": "15.3 µM (inactive)"}, {"measurement": "GI50", "setting": "CAKI-1", "value": "6.49 µM (inactive)"}, {"measurement": "GI50", "setting": "OVCAR-5", "value": "17.7 µM (inactive)"}, {"measurement": "GI50", "setting": "KM12", "value": "7.23 µM (inactive)"}, {"measurement": "GI50", "setting": "SNB-19", "value": "14.9 µM (inactive)"}, {"measurement": "GI50", "setting": "HOP-62", "value": "22.1 µM (inactive)"}, {"measurement": "GI50", "setting": "SK-MEL-5", "value": "16 µM (inactive)"}, {"measurement": "GI50", "setting": "SN12C", "value": "17.3 µM (inactive)"}, {"measurement": "GI50", "setting": "HCT-15", "value": 12.8, "unit": "µM"}, {"measurement": "GI50", "setting": "EKVX", "value": "16 µM (inactive)"}, {"measurement": "GI50", "setting": "U-251", "value": "15.2 µM (inactive)"}, {"measurement": "GI50", "setting": "MDA-MB-231", "value": "15.7 µM (inactive)"}, {"measurement": "GI50", "setting": "A549", "value": "21 µM (inactive)"}, {"measurement": "GI50", "setting": "M14", "value": "14.9 µM (inactive)"}, {"measurement": "GI50", "setting": "CCRF-CEM", "value": "6.35 µM (inactive)"}, {"measurement": "GI50", "setting": "BT-549", "value": "18.6 µM (inactive)"}, {"measurement": "GI50", "setting": "HOP-92", "value": "16.1 µM (inactive)"}, {"measurement": "GI50", "setting": "COLO 205", "value": "16.9 µM (inactive)"}, {"measurement": "GI50", "setting": "Malme-3M", "value": "18.5 µM (inactive)"}]}]}
